Experimental data published in patent US12091399B2, “Phenyltetrazole derivatives as plasma kallikrein inhibitors” (Boehringer Ingelheim International GmbH, priority 2018, dated 2024).
Square brackets hold non-standard residues; d marks the D form. Peptide text beside a SMILES is read from it. * marks the point of attachment. pNA = O=[N+]([O-])c1ccc(N*)cc1; Cbz = O=C(OCc1ccccc1)*

Experiments:
Assay type in all cases: biochemical
[1] = target: Human FXa (Homo sapiens (Human), UniProt P00742); assay: Inhibition of FXa (Ki); conditions: substrate KM, enzyme FXa
Chain of Human FXa (P00742 235-488): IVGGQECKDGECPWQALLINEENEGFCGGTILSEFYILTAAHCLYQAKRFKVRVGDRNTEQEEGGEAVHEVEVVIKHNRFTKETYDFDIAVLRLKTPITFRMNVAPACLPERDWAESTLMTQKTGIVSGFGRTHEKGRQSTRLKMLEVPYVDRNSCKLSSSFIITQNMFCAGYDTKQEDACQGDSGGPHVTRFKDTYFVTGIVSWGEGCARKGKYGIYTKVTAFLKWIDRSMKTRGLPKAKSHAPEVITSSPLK
Chain of Human FXa (P00742 41-179 partner): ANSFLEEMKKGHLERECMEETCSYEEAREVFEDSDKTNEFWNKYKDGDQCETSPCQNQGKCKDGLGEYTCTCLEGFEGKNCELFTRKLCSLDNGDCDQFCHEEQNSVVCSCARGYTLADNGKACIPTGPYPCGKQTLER
Experimental: (§1) The ability of compounds of formula (I) to inhibit plasma kallikrein (PKK), Factor XIIa (FXIIa), Factor XIa (FXIa), Factor Xa (FXa), Factor IIa (alpha-thrombin; FIIa), plasmin, trypsin, tissue kallikrein 1 (TK1), Factor Vila (FVIIa), or FVIIa complexed with Tissue Factor, phospholipids and CaCl2) (FVIIa/TF/PL/CaCl2) was determined using the following biochemical assays in assay buffer (100 mM Tris, 150 mM NaCL, adjusted to a pH of 7.8 with HCl, and containing 0.1% (w/v) BSA and 0.05% (v/v) Tween20) in the presence of 1% (v/v) DMSO:
(§2) Human FXa (0.86 nM or 0.01 U/mL; Enzyme Research Laboratories) was incubated at 24° C. with 0.5 mM chromogenic Substrate S2765 (Chromogenix) and various concentrations of the test compound in assay buffer. Measurements were performed in a kinetic interval every 2nd minute for 16 min using a Spectramax M5 (Molecular Devices) measuring the optical absorbance at 405 nm.
(§3) The pIC50 values were then fitted using a four-parametric fitting procedure using GraphPad Prism (version 6; GraphPad Software, Inc.). Respective Ki values were obtained by correction of the IC50 values for the respective KM value of the used substrate (see Table A for the obtained KM values of the used substrates) using the following formula: […]

[2] = target: Human FIIa (Homo sapiens (Human), UniProt P00734); assay: Inhibition of FIIa (Ki); conditions: substrate KM, enzyme FIIa
Experimental: as §1
as §2, with “FIIa (44.6” for “FXa (0.86”, “5” for “0.01”, “S2238” for “S2765”
as §3

[3] = target: Human FXIIa (Homo sapiens (Human), UniProt P00748); assay: Inhibition of FXIIa (Ki); conditions: substrate KM, enzyme FXIIa
Chain of Human FXIIa (P00748 373-615): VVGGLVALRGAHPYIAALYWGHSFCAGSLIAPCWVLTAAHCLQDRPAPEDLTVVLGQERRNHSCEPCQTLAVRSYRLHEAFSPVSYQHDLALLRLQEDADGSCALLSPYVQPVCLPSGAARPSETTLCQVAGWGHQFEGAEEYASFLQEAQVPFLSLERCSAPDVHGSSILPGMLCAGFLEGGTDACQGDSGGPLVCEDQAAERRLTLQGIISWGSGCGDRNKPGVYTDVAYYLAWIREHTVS
Chain of Human FXIIa (P00748 20-372 partner): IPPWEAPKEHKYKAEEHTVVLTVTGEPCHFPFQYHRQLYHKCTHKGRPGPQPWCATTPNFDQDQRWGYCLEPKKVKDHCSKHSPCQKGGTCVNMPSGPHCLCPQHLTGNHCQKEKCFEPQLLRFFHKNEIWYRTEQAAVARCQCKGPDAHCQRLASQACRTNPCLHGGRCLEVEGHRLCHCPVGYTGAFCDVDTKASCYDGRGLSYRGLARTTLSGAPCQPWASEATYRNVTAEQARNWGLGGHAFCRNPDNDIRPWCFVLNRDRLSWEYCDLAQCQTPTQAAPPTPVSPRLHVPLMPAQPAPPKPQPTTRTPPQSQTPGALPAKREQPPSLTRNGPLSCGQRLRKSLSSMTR
Experimental: as §1
as §2, with “FXIIa (47.5” for “FXa (0.86”, “1.1” for “0.01”, “S2302” for “S2765”
as §3

A Km [1] of 1310 µM was found for `NC(N)=NCCC[C@H](NC(=O)CNC(=O)[C@@H](CCCN=C(N)N)NC(=O)OCc1ccccc1)C(=O)Nc1ccc([N+](=O)[O-])cc1` [Example S2765] (Cbz-[dR]-Gly-Arg-pNA) in this work.

A Km [2] of 1250 µM was found for `NC(N)=NCCC[C@H](NC(=O)[C@@H]1CCCCN1C(=O)[C@H](N)Cc1ccccc1)C(=O)Nc1ccc([N+](=O)[O-])cc1` [Example S2238] in this work.

A Km [3] of 200 µM was found for `N=C(N)NCCC[C@H](NC(=O)[C@H](Cc1ccccc1)NC(=O)[C@H]1CCCN1)C(=O)Nc1ccc([N+](=O)[O-])cc1` [Example S2302] (H-[dP]-Phe-Arg-pNA) in this work.
